According to patent US12049642B2, “Corneal endothelial cells with increased cell density and compositions thereof” (Astellas Institute for Regenerative Medicine, priority 2011, dated 2024):

Experiments:
hESC-derived CEC = assay: Effect of ROCK inhibitor on harvested and replated hESC-derived CEC; format: cell-based, human; parameters: key to O/N Confluent: +: “O/N confluent” indicates the confluence of cultured cells after overnight plating, reflecting the degree of cell survival and/or attachment.; −: “O/N confluent” indicates the confluence of cultured cells after overnight plating, reflecting the degree of cell survival and/or attachment; key to Morphology: a high quality polygonal/hexagonal cell shape (“++”); a polygonal/hexagonal shape (“+”); fibroblastic morphology (“−”); key to COL8A1 mRNA / AQP1 mRNA / SLC16A3 mRNA: expression (“+”); non-expression (“−”)
Description: Expression of COL8A1 and SLC16A3 were elevated relative to hESC (FIGS. 17E-17F).
The harvested cells were further examined for morphology, ability to reestablished a confluent culture, and retaining expression of the CEC markers COL8A1, AQP1, and SLC16A by qPCR. […] Moreover, Maintenance with media containing ROCK inhibitor can help the cells maintain a high quality CEC morphology after harvesting and replating.
Rock inhibitor […] (Wako, cat #253-00513) was dissolved in distilled H2O to make a 10 mM stock solution and sterile filtered and aliquoted. Rock inhibitor aliquot was thawed and added fresh to media daily.
Cornea cells were grown as described in Example 2 and harvested by treatment with 0.25% Trypsin as described in Example 4 and replated, with variations (i.e., inclusion of ROCK inhibitor and/or ASC as described below).
After plating, cells were viewed to identify any morphological changes, and specifically whether they regained their polygonal/hexagonal shape, were a mixed population of polygonal and fibroblastic shape, or if they had turned fibroblastic.
Media was changed daily with fresh Rock inhibitor except for “Pretreatment” and “D1” paradigms. After 1 week of culture, RNA was collected and analyzed by QPCR for changes in COL8A1, AQP1, and SLC16A3 mRNA levels. The efficacy of the Rock inhibitor for harvesting cells were tested between 1-20 microM.
For the “Pretreatment” paradigm, CEC were produced as described in Example 2. The cornea media was removed and replaced with either 10 microM Rock or 10 microM Rock with 0.3 mM ASC-P2 (L ascorbic acid phosphate magnesium salt n-hydrate (Wako, cat #013-19641)) for 1 hour before harvesting. Cells were harvested using 0.25% trypsin as described above, however, no Rock inhibitor was added during harvesting.
For the “Rock overnight” paradigm, CEC were produced as described in Example 2, harvested with 0.25% trypsin as described above, and then plated overnight in the presence of 10 microM Rock inhibitor. The following morning, the media was removed, and no further Rock inhibitor was added to the media.
For the “Rock maintenance” paradigm, CEC were produced as described in Example 2, harvested using 0.25% trypsin as described above, and were maintained in Rock inhibitor added daily to fresh media.
For the “D1” paradigm, CEC were produced as described in Example 2, harvested using 0.25% trypsin as described above, and cultured in presence of Rock inhibitor for 1 week. Cornea cells were then grown for additional week in the presence or absence of Rock inhibitor, to determine whether the ROCK inhibitor contributed to the maintenance of their morphology.

CEC = assay: ANGPL7 included in culture media during CEC differentiation; format: cell-based, human; conditions: in culture media in combination with DKK2 and PDGFB; methods of Example 1
Text: Accordingly, ANGPL7 may optionally be used in the differentiation of corneal endothelial cells, for example by its inclusion in the culture during and/or after formation of corneal endothelial cells. ANGPL1-8 may be used in place of or in addition to ANGPL7.

[1] = D1: factors in media for the first week after plating, thereafter omitted

In the case of `C[C@@H](N)[C@H]1CC[C@H](C(=O)Nc2ccncc2)CC1` [Rock, (1R,4r)-4-((R)-1-aminoethyl)-N-(pyridin-4-yl)cyclohexanecarboxamide], the “morphology of the hESC CEC trypsinized and replated” value (hESC-derived CEC; 1 μM Rock inhibitor, FIG. 17A) is reported as “variable”, the “morphology of the hESC CEC trypsinized and replated” value (hESC-derived CEC; 5 μM Rock inhibitor, FIG. 17B) is reported as “somewhat more uniform” and the “morphology of the hESC CEC trypsinized and replated” value (hESC-derived CEC; 10 μM Rock inhibitor, FIG. 17C) is reported as “uniform and polygonal/hexagonal”. For the same molecule, the “morphology of the hESC CEC trypsinized and replated” value (hESC-derived CEC; 20 μM Rock inhibitor, FIG. 17D) was “uniform and polygonal/hexagonal”, the “SLC16A3 expression compared to PD1T that has not been harvested” value (hESC-derived CEC; 20 μM Rock inhibitor, QPCR) was “unchanged” and the “SLC16A3 expression compared to PD1T that has not been harvested” value (hESC-derived CEC; 1-10 μM Rock inhibitor, QPCR) was “upregulated”. The “O/N Confluent” value (hESC-derived CEC; 1 microM (maint.), in media each day after plating) was “+”, the “AQP1 mRNA” value (hESC-derived CEC; 1 microM (maint.), QPCR) was “+” and the “COL8A1 mRNA” value (hESC-derived CEC; 1 microM (maint.), QPCR) was “+”. The “SLC16A3 mRNA” value (hESC-derived CEC; 1 microM (maint.), QPCR) was “+”, the Morphology (hESC-derived CEC; 1 microM (maint.), after 1 week in culture) was “+” and the “O/N Confluent” value (hESC-derived CEC; 5 microM (maint.)) was “+”. The “AQP1 mRNA” value (hESC-derived CEC; 5 microM (maint.), QPCR) was “+”, the “COL8A1 mRNA” value (hESC-derived CEC; 5 microM (maint.), QPCR) was “+” and the “SLC16A3 mRNA” value (hESC-derived CEC; 5 microM (maint.), QPCR) was “+”. For the same molecule, the Morphology (hESC-derived CEC; 5 microM (maint.), after 1 week in culture) was “++”, the “O/N Confluent” value (hESC-derived CEC; 10 microM (maint.), ASC 0.3 mM where added) was “+” and the “AQP1 mRNA” value (hESC-derived CEC; 10 microM (maint.), QPCR) was “+”. The “COL8A1 mRNA” value (hESC-derived CEC; 10 microM (maint.), QPCR) was “+”, the “SLC16A3 mRNA” value (hESC-derived CEC; 10 microM (maint.), QPCR) was “+” and the Morphology (hESC-derived CEC; 10 microM (maint.), after 1 week in culture) was “++”. For the same molecule, the “O/N Confluent” value (hESC-derived CEC; 20 microM (maint.), ASC 0.3 mM where added) was “+”, the “AQP1 mRNA” value (hESC-derived CEC; 20 microM (maint.), QPCR) was “+” and the “COL8A1 mRNA” value (hESC-derived CEC; 20 microM (maint.), QPCR) was “+”. The “SLC16A3 mRNA” value (hESC-derived CEC; 20 microM (maint.), QPCR) was “+”, the Morphology (hESC-derived CEC; 20 microM (maint.), after 1 week in culture) was “++” and the Morphology (hESC-derived CEC; [1]) was “−”. For the same molecule, the “O/N Confluent” value (hESC-derived CEC; [1]) was “+”, the “O/N Confluent” value (hESC-derived CEC; Pretreat: 10 microM Rock 1 hour before harvesting with 0.25% trypsin, ASC 0.3 mM where added) was “−” and the Morphology (hESC-derived CEC; Pretreat: 10 microM Rock 1 hour before harvesting, after 1 week in culture) was “−”. For the same molecule, the “AQP1 mRNA” value (hESC-derived CEC; Pretreat, QPCR after 1 week) was “+”, the “COL8A1 mRNA” value (hESC-derived CEC; Pretreat, QPCR after 1 week) was “+” and the “SLC16A3 mRNA” value (hESC-derived CEC; Pretreat, QPCR after 1 week) was “+”. The “COL8A1 expression compared to PD1T that has not been harvested” value (hESC-derived CEC; QPCR, FIG. 17E) was “relatively unchanged”, the “cell uniformity and polygonal/hexagonal morphology” value (hESC-derived CEC; concentrations up to 20 micromolar, FIGS. 17A-17D) was “dose-responsive improvement” and the “O/N Confluent” value (hESC-derived CEC; o/n: plated overnight with 10 microM Rock after harvest, ASC 0.3 mM where added) was “+”. The Morphology (hESC-derived CEC; o/n: plated overnight with 10 microM Rock, after 1 week in culture) was “+”, the “AQP1 mRNA” value (hESC-derived CEC; o/n, QPCR after 1 week) was “+” and the “COL8A1 mRNA” value (hESC-derived CEC; o/n, QPCR after 1 week) was “+”. For the same molecule, the “SLC16A3 mRNA” value (hESC-derived CEC; o/n, QPCR after 1 week) was “+”.

B1: ANGPL7: Angiopoietin-Like Protein 7, included in the culture media with DKK2 and PDGFB (protein, UniProt O43827 27-346, looked up)
Angiopoietin-related protein 7: QKLSKHKTPAQPQLKAANCCEEVKELKAQVANLSSLLSELNKKQERDWVSVVMQVMELESNSKRMESRLTDAESKYSEMNNQIDIMQLQAAQTVTQTSADAIYDCSSLYQKNYRISGVYKLPPDDFLGSPELEVFCDMETSGGGWTIIQRRKSGLVSFYRDWKQYKQGFGSIRGDFWLGNEHIHRLSRQPTRLRVEMEDWEGNLRYAEYSHFVLGNELNSYRLFLGNYTGNVGNDALQYHNNTAFSTKDKDNDNCLDKCAQLRKGGYWYNCCTDSNLNGVYYRLGEHNKHLDGITWYGWHGSTYSLKRVEMKIRPEDFKP
In the case of B1, the “packing and morphology of the resulting CEC” value (CEC) is reported as “tighter packing and more hexagonal morphology”.
